# Measured values taken from US5332734A, “Oxazinone derivative” (Japan Tobacco, Incorporated, priority 1991, dated 1994).
# System: human neutrophils
# Assay: Activity for suppressing chemotaxis of human neutrophils (fMLP)
# Format: cell-based
# Details: Neutrophil, 1 h, one hour
# Experimental: Test 2: Activity of the Invented Compound for Suppressing Chemotaxis of Human Neutrophils
# A neutrophil fraction (60% percoal fraction having neutrophil purity of at least 90%) was obtained from a human peripheral blood by a percoal density gradient centrifugal separation (2300 rpm, 20 minutes).
# 1300 μl of a culture medium containing 10^-7 M of fMLP (formylmethionyloycyl-phenylalanine), which is a neutrophil chemotaxis factor, was added in advance to each well of a chemotaxis chamber (KURABO). An inter cell having pores 5 μm in diameter and containing 8×10^5 neutrophils and the compound of the present invention adjusted at a desired concentration was disposed in the chemotaxis chamber. After culturing for one hour at 37° C. within a culturing device containing 5% of carbon dioxide gas, the number of cells migrated from the upper side of inter cell membrane into the lower side of the membrane in the chamber was counted by the method described in the following. Specifically, the lower side surface of the inter cell membrane was washed 4 times with PBS. After fixing the washed surface with methanol, the cells were dyed with hematoxylin-eosine solution. Then, the membrane was removed from the inter cell and put on a sliding glass for air-drying, followed by sealing with Canada balsam. Under this condition, five areas selected at random of the membrane were microscopically observed so as to count the number of cells. An average of the number of cells within the five areas was calculated so as to determine the number of migrated cells.
# The function of the invented compound for suppressing chemotaxis was determined by the formula given below, in which the value obtained by subtracting the number of migrating cells in the reference experiment in which fMLP was not added from the number of migrating cells in the experiment in which the compound of the present invention was not added was set at 100:
# = 100 - (C - D)/(E - D) × 100
# A: Chemotaxis in the case of containing the compound of the present invention;
# B: Chemotaxis in the case of not containing the compound of the present invention;
# C: The number of migrating cells in the case of adding the compound of the present invention, fMLP;
# D: The number of migrating cells in the case of not adding fMLP; and
# E: The number of migrating cells in the case of adding only fMLP.
compound,measurement,setting,value
"Cc1cccc2nc([C@@H](NC(=O)OCC3c4ccccc4-c4ccccc43)C(C)C)oc(=O)c12 [Compound 1, 2-{1(S)-[(9-fluorenylmethoxycarbonyl)amino]-2-methylpropyl}-5-methyl-4H-3,1-benzoxazin-4-one]",inhibition at 50 µM,"concentration 50 (μm), fMLP 10^-7 M",89%
same,activity at 50 µM,"concentration 50 (μm), without compound = 100, fMLP 10^-7 M",11%
same,inhibition at 100 µM,"concentration 100 (μm), fMLP 10^-7 M",99%
same,activity at 100 µM,"concentration 100 (μm), without compound = 100, fMLP 10^-7 M",1%
